Four molecules from patent US12435072B2, “Compounds” (Vicore Pharma AB, priority 2019, dated 2025) can be followed below.

In general, IC50 refers to the concentration that inhibits the measured activity by half.

For series [1], the target named is T1, human recombinant AT2 receptor (Homo sapiens, UniProt P50052).
T1 construct: purchased Eurofins ITEM26
T1 sequence (P50052 1-363): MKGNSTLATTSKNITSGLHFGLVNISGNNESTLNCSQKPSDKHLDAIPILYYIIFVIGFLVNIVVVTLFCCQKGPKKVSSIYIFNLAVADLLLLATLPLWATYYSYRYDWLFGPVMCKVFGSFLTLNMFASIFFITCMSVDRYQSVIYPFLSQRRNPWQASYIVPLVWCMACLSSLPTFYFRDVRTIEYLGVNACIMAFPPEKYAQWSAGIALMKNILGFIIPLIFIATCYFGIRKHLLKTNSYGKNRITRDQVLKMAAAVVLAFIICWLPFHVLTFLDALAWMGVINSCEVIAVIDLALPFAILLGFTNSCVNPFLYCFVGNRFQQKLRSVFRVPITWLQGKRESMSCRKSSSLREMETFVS
Put plainly: Binding to AT2 receptor, radiometric scintillation assay (Eurofins). As to conditions: ligand 125I CGP 42112A, tested at 1, 10, 100 and 1000 nM. As to the method: (§1) Compounds were evaluated for binding to the human recombinant AT2 and AT1 receptor according to Eurofins protocol ITEM26 and ITEM24 using a radiometric scintillation assay.

For series [2], the target named is T2, CYP2C19 (Homo sapiens, UniProt P33261).
T2 construct: incubated with human liver microsomes; tissue Eurofins ITEMG232; host or cells: human liver microsomes
Put plainly: CYP inhibition in human liver microsomes, CYP2C19. The format is in vitro ADME. As to conditions: substrate omeprazole; for inhibition at 10 µM: probe omeprazole, read-out: CYP2C19 Inh %. Here is the method:
(§2) The following substrates were used: CYP1A phenacetin, CYP2B6 bupropion, CYP2C8 paclitaxel and amodiaquine, CYP2C9 diclofenac, CYP2C19 omeprazole, CYP2D6 dextromethorphan, CYP3A midazolam and testosterone. At the end of the incubation, the formation of metabolite was monitored by HPLC-MS/MS as the peak area response.
(Liver microsomes are vesicles of endoplasmic reticulum, rich in cytochrome P450 enzymes.)

In series [3] the target is T3, CYP2D6 (Homo sapiens, UniProt P10635).
T3 construct: incubated with human liver microsomes; tissue Eurofins ITEMG232; host or cells: human liver microsomes
Put plainly: CYP inhibition in human liver microsomes, CYP2D6. The series is classed as in vitro ADME. The following applies: probe dextromethorphan, substrate dextromethorphan, read-out: CYP2D6 Inh %. As to the method: as §2

For series [4], the target named is T4, CYP2C8 (Homo sapiens, UniProt P10632).
T4 construct: incubated with human liver microsomes; tissue Eurofins ITEMG232; host or cells: human liver microsomes
T4 sequence (P10632 1-490): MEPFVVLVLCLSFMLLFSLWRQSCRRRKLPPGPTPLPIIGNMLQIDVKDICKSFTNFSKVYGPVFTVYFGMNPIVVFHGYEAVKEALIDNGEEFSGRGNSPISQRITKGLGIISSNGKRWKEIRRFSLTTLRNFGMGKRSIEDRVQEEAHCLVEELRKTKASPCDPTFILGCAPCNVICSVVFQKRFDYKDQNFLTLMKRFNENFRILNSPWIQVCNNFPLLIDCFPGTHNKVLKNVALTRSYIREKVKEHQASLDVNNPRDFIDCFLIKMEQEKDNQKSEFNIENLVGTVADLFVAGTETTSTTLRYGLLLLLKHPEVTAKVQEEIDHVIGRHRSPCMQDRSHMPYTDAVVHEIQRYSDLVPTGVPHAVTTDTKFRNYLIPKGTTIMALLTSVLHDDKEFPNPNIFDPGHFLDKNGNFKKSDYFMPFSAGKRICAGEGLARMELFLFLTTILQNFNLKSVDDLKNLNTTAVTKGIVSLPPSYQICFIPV
In words: CYP inhibition in human liver microsomes, CYP2C8. The series is classed as in vitro ADME. As to conditions: probe paclitaxel and amodiaquine, substrate paclitaxel and amodiaquine, read-out: CYP2C8 Inh %. As to the method: as §2

The target in series [5] is T5, CYP2B6 (Homo sapiens, UniProt P20813).
T5 construct: incubated with human liver microsomes; tissue Eurofins ITEMG232; host or cells: human liver microsomes
T5 sequence (P20813 1-491): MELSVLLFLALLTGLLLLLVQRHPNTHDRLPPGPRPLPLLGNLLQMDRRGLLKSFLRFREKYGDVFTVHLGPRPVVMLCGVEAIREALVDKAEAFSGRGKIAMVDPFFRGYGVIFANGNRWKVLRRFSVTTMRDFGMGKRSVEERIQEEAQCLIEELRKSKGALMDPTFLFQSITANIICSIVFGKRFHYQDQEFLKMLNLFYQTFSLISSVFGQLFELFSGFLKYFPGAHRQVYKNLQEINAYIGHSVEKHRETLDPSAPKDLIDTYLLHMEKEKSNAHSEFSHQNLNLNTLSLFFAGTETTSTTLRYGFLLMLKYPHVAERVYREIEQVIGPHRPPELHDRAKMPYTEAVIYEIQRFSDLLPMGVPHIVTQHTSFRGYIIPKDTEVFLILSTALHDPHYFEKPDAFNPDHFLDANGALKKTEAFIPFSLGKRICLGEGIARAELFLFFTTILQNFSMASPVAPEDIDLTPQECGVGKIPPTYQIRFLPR
Put plainly: CYP inhibition in human liver microsomes, CYP2B6. The format is in vitro ADME. As to conditions: probe bupropion, substrate bupropion, read-out: CYP2B6 Inh %. Here is the method: as §2

The target in series [6] is T6, CYP1A (Homo sapiens, UniProt P05177).
T6 construct: incubated with human liver microsomes; tissue Eurofins ITEMG232; host or cells: human liver microsomes
T6 sequence (P05177 1-516): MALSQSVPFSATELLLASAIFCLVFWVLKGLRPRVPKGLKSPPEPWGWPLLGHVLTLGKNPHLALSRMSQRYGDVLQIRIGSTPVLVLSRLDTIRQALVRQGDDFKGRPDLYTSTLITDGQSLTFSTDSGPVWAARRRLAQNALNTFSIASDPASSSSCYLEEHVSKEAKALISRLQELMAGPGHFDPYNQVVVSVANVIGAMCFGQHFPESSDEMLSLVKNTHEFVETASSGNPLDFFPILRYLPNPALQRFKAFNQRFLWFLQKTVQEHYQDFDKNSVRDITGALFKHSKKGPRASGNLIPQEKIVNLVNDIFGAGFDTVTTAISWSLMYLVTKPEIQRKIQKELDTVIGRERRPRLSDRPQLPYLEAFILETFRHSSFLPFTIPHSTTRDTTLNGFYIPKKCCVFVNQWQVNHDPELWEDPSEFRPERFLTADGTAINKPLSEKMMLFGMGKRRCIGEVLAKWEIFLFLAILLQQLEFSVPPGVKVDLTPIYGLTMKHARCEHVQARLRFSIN
In words: CYP inhibition in human liver microsomes, CYP1A. The format is in vitro ADME. As to conditions: probe phenacetin, substrate phenacetin, read-out: CYP1A Inh %. As to the method: as §2

Series [7] addresses T7, human recombinant AT1 receptor (Homo sapiens, UniProt P30556).
T7 construct: purchased Eurofins ITEM24
T7 sequence (P30556 1-359): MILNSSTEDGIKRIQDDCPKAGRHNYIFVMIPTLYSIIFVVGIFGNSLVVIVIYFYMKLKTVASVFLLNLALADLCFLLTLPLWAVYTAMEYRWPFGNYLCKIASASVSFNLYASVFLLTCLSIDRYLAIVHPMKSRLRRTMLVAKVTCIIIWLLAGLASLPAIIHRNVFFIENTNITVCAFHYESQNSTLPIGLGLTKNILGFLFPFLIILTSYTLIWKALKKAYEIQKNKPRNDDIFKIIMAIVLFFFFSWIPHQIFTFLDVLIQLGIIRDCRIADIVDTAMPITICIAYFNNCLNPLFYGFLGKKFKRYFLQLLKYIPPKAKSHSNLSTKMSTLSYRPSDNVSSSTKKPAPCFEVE
In words: Binding to AT1 receptor, radiometric scintillation assay (Eurofins). The following applies: ligand 125I(sar1,Ile8)-AT-II, tested at 1 and 10 μM. Here is the method: as §1

Series [8] has as its system CYP3A4&5. In words: CYP inhibition in human liver microsomes, CYP3A4&5 (testosterone). The format is in vitro ADME. As to conditions: probe testosterone, substrate testosterone, read-out: CYP3A4&5 testosterone Inh %. Here is the method: as §2
For series [9], the target named is T8, CYP2C9 (Homo sapiens, UniProt P11712). In words: CYP inhibition in human liver microsomes, CYP2C9. The format is in vitro ADME. Also on record: incubated with human liver microsomes; tissue Eurofins ITEMG232; host or cells: human liver microsomes. The following applies: substrate diclofenac; for inhibition at 10 µM: probe diclofenac, read-out: CYP2C9 Inh %. Here is the method: as §2

Series [10] deals with T9, CYP3A4 (Homo sapiens, UniProt P08684). In words: CYP inhibition in human liver microsomes, CYP3A4 (midazolam). The format is in vitro ADME. More on the design: incubated with human liver microsomes; tissue Eurofins ITEMG232; host or cells: human liver microsomes. As to conditions: probe midazolam, substrate midazolam, read-out: CYP3A4 midazolam Inh %. Here is the method: as §2

Series [11] has as its target T9, CYP3A4. In words: CYP inhibition found during development of C21, CYP 3A4. The series is classed as in vitro ADME. The following applies: statement in background.
A short description of series [12]: Metabolic hydrolysis found during development of C21. The series is classed as in vitro ADME. As to conditions: statement in background.
The target of series [13] is T8, CYP2C9. Put plainly: CYP inhibition found during development of C21, CYP 2C9. The format is in vitro ADME. As to conditions: statement in background.

T2 sequence (P33261 whole entry): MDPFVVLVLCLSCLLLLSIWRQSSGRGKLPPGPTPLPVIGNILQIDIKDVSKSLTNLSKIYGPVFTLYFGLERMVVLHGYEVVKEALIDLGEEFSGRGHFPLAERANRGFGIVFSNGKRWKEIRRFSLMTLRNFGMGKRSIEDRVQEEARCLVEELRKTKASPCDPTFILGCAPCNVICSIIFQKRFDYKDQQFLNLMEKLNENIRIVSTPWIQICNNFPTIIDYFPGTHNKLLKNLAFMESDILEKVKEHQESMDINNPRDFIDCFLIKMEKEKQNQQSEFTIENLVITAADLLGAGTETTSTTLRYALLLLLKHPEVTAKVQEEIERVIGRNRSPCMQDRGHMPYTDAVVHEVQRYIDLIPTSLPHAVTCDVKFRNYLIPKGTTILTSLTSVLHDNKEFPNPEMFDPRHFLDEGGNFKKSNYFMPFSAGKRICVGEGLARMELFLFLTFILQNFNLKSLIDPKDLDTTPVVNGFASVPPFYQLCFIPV
T8 sequence (P11712 whole entry): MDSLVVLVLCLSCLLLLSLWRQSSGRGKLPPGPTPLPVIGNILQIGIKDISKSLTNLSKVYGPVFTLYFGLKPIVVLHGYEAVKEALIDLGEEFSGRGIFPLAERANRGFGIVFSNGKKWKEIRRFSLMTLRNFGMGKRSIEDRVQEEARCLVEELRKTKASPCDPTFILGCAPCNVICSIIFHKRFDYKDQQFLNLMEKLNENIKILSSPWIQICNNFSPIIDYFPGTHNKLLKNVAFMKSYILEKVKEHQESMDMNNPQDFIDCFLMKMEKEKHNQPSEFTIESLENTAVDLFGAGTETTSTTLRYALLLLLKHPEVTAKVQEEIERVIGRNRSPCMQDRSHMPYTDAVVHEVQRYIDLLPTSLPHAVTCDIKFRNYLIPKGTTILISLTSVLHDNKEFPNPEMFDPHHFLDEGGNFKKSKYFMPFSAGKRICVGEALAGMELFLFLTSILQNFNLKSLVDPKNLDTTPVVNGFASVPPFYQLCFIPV
T9 sequence (P08684 whole entry): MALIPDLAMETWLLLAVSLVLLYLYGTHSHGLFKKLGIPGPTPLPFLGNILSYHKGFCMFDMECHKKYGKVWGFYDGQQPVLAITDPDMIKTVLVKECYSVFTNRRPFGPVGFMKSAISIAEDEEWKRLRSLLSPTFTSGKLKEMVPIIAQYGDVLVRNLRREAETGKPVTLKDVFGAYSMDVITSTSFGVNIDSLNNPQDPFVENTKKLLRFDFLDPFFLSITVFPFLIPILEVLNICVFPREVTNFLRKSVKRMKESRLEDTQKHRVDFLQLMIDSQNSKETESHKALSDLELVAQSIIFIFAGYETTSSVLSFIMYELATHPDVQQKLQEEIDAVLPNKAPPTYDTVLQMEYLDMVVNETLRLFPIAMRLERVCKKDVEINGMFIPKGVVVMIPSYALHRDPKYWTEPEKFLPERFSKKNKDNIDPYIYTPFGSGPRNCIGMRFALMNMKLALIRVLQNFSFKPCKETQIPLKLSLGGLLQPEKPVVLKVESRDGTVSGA
T3 sequence (P10635 whole entry): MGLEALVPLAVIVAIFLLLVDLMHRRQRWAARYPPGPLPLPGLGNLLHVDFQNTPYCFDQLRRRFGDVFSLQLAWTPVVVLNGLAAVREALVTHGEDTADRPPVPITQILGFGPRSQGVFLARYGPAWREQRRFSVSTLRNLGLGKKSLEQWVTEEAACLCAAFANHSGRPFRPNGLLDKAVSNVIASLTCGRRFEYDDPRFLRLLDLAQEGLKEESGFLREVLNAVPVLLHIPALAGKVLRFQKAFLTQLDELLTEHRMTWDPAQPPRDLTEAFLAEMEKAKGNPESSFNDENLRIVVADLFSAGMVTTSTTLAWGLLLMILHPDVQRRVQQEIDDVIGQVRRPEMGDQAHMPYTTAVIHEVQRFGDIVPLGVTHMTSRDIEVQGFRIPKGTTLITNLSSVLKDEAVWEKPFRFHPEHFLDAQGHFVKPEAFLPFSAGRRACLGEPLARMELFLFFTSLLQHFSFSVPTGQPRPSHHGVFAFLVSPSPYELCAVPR

For `Cc1cn(Cc2ccc(-c3cc(CC(C)C)sc3S(=O)(=O)NC(=O)NCc3ccccn3)cc2)c(C)n1` [Example 11, 3-(3-{p-[(2,4-Dimethyl-1H-imidazol-1-yl)methyl]phenyl}-5-isobutyl-2-thienylsulfonyl)-1-[(2-pyridyl)methyl]urea], the concentration for half-maximal inhibition (IC50) stood at 0.119 µM in [1] and 18 µM in series [7]. Further, the inhibition at 10 µM in series [2] came to 53%; in series [3], 44%; in series [4], 34%; in series [5], 14%; in [6], 5%; in series [8] it was 17%. For the same molecule, the values for the inhibition at 10 µM in series [9] and in series [10] were 29% and 22%, respectively.
In the case of `Cc1nccn1Cc1ccc(-c2cc(CC(C)C)sc2S(=O)(=O)NC(=O)NCCc2c[nH]cn2)cc1F` [Example 16, 1-(3-{3-Fluoro-4-[(2-methyl-1H-imidazol-1-yl)methyl]phenyl}-5-isobutyl-2-thienylsulfonyl)-3-[2-(1H-imidazol-4-yl)ethyl]urea], the half-maximal inhibitory concentration (IC50) amounted to 0.0074 µM in series [1] and 57 µM in series [7]. For the same molecule, the inhibition at 10 µM in series [2] worked out at 91%; in [3] it was 88%; in series [4] it was 65%; in [5], 88%; in series [6] it was 23%; in [8], 58%. Further, the values for the inhibition at 10 µM in series [9] and in series [10] were 79% and 91%, respectively.
With `Cc1nccn1Cc1ccc(-c2cc(CC(C)C)sc2S(=O)(=O)NC(=O)N(C)Cc2ccccn2)cc1F` [Example 17, 3-(3-{3-Fluoro-4-[(2-methyl-1H-imidazol-1-yl)methyl]phenyl}-5-isobutyl-2-thienylsulfonyl)-1-methyl-1-[(2-pyridyl)methyl]urea], the half-inhibitory concentration (IC50) in series [1] was 0.0095 µM; in [7], 58 µM. Besides, the inhibition at 10 µM in [2] was 54%; in [3], 22%; in series [4] it was 83%; in series [5] it was 20%; in series [6], 29%; in series [8], 18%. The inhibition at 10 µM in series [9] was 48%; in series [10], 65%.
For `CCCCOC(=O)NS(=O)(=O)c1sc(CC(C)C)cc1-c1ccc(Cn2ccnc2)cc1` [Example C21, N-butyloxycarbonyl-3-(4-imidazol-1-ylmethylphenyl)-5-isobutylthiophene-2-sulfon-amide], the “inhibition of CYP 3A4” value in [11] is reported as “potent inhibitor”. Moreover, the “CYP2C19 Inh %” value in series [2] (10 μM) is listed as 96.0%. Further, the metabolic hydrolysis entry in series [12] is “rapidly hydrolysed to an inactive sulfonamide metabolite”. For the same molecule, the “CYP2C9 Inh %” value in [9] (10 μM) is 99.0%. Also, the “inhibition of CYP 2C9” value in series [13] is “potent inhibitor”.
